Measured values: the NIST ThermoML archive (doi:10.1016/j.jct.2009.05.009)
± gives the expanded uncertainty stated by the source.

Experiment: xn = mol fraction of the nth substance listed
Details: 101.3 kPa, Liquid, Vibrating tube method

CCOS(=O)(=O)[O-].CCn1cc[n+](C)c1 [1-ethyl-3-methylimidazolium ethyl sulfate] + O
mass density [kg/m3]
Details	318.15 K	323.15 K	328.15 K	333.15 K	338.15 K	343.15 K
x2 = 0	–	1224.1 ± 2.3	1221.1 ± 2.3	1218.1 ± 2.3	1215.1 ± 2.3	1212 ± 2.3
x2 = 0.0514	–	1223 ± 2.3	1220 ± 2.3	1216.9 ± 2.3	1213.8 ± 2.3	1210.7 ± 2.3
x2 = 0.13	–	1221.3 ± 2.2	1218.2 ± 2.2	1215.2 ± 2.2	1212.1 ± 2.2	1208.9 ± 2.2
x2 = 0.1783	–	1220.1 ± 2.2	1216.9 ± 2.2	1213.9 ± 2.2	1210.9 ± 2.2	1207.8 ± 2.2
x2 = 0.2168	–	1219.1 ± 2.2	1216 ± 2.2	1212.9 ± 2.2	1209.9 ± 2.2	1206.7 ± 2.2
x2 = 0.2642	–	1217.6 ± 2.2	1214.6 ± 2.2	1211.5 ± 2.2	1208.4 ± 2.2	1205.3 ± 2.1
x2 = 0.3054	–	1216.3 ± 2.1	1213.2 ± 2.1	1210.1 ± 2.1	1207 ± 2.1	1203.9 ± 2.1
x2 = 0.3568	–	1214.4 ± 2.1	1211.2 ± 2.1	1208.2 ± 2.1	1205.1 ± 2.1	1201.9 ± 2.1
x2 = 0.4008	–	1212.4 ± 2.1	1209.3 ± 2.1	1206.2 ± 2.1	1203.1 ± 2.1	1200 ± 2.1
x2 = 0.4613	1212.4 ± 2.1	1209.3 ± 2.1	1206.1 ± 2.1	1203.1 ± 2.1	1200 ± 2.1	1196.8 ± 2.1
x2 = 0.5002	1210.1 ± 2.2	1206.9 ± 2.2	1203.8 ± 2.2	1200.7 ± 2.2	1197.6 ± 2.2	1194.3 ± 2.2
x2 = 0.5584	1206 ± 2.2	1202.8 ± 2.2	1199.6 ± 2.2	1196.4 ± 2.2	1193.2 ± 2.2	1189.9 ± 2.2
x2 = 0.6124	1201.1 ± 2.3	1197.8 ± 2.3	1194.6 ± 2.3	1191.4 ± 2.3	1188.1 ± 2.3	1184.7 ± 2.3
x2 = 0.6698	1194.3 ± 2.4	1191 ± 2.4	1187.7 ± 2.4	1184.3 ± 2.4	1180.9 ± 2.5	1177.4 ± 2.5
x2 = 0.7125	1187.6 ± 2.7	1184.3 ± 2.7	1181 ± 2.8	1177.5 ± 2.8	1173.9 ± 2.7	1170.4 ± 2.7
x2 = 0.7635	1177.2 ± 3.1	1173.7 ± 3.1	1170.2 ± 3.1	1166.8 ± 3.1	1163.5 ± 3.1	1159.9 ± 3.1
x2 = 0.8006	1167 ± 3.9	1163.5 ± 3.9	1160 ± 3.9	1156.6 ± 3.9	1153.2 ± 3.9	1149.5 ± 3.9
x2 = 0.8497	1148.9 ± 5	1145.2 ± 5	1141.6 ± 5	1138.3 ± 5	1134.9 ± 5	1131.3 ± 5
x2 = 0.8963	1123 ± 11	1119.6 ± 11	1116.4 ± 11	1112.9 ± 11	1109.3 ± 11	1106 ± 11
